# From US20260256667A1, “ORAL CARE COMPOSITION FOR INCREASING SELF CONFIDENCE” (GIVAUDAN SA, priority 2023, published 2026)
# Experiments:
# [1] = Self-confidence, 9-item subscale of the modified CSAI-2 questionnaire, after teeth brushing, home use test; format: in vivo, human
# Procedure: Individual's thoughts and feelings in relation to their self-confidence as per their perceived oral health (such as breath) were measured using a 9-item subscale of the modified Competitive State Anxiety Questionnaire (CSAI-2).
# The nine items in the Self-confidence scale include five that describe positive expectations (“I feel self-confident”, “I am confident I can meet the challenge”, “I'm confident about performing well”, “I'm confident because I mentally picture myself reaching my goal”, and “I'm confident about coming through under pressure”), and four that describe a generalised feeling of calmness (“I feel calm”, “I feel comfortable”, “I feel secure”, “I feel mentally relaxed”). All items were rated on a 4-point scale anchored by 1 (“Not at all”) and 4 (“Very much so”).
# (§1) Twenty-six participants were pre-screened to ensure that they had no underlying dental problems.
# (§2) A repeated measures design, with a randomised repeated trial per product was used. Three toothpastes were prepared with: • Control: peppermint flavour • EC180—150 ppm: peppermint flavour+150 ppm EC180 (concentration in toothpaste) • EC180—250 ppm: peppermint flavour+250 ppm EC180 (concentration in toothpaste)
# (§3) Participants were given duplicate tubes of each toothpaste (6 tubes in total). All products were assigned different codes and presented in white tubes to prevent colour as a confounding factor.
# (§4) The participants did the test each morning in their homes as per their usual teeth cleaning time (between 7:00 am and 10:00 am) and were asked to refrain from using other oral practices apart from brushing with test product. Testing was done with one product a day with a one-day separation left before testing the next product. A questionnaire was sent to them via an online link for them to complete before teeth cleaning and after teeth cleaning. Responses before teeth cleaning were recorded as their baseline scores.
# The questionnaires on breath-freshness and self-confidence was set up for participants to respond to at the five time-points: (i) pre-brush baseline (ii) 0 minutes immediately post-bush (iii) 30 minutes post-brush (iv) 60 minutes post-brush. A total of 47 datasets per product was input for analysis and 5 incompletes were removed.
# Self-confidence was measured with the 9-Item subscale of the Modified Competitive State Inventory-2 (CSAI-2). The questionnaire uses a 4-point scale as follows:
# 1—not at all; 2—somewhat; 3—moderately so; 4—very much so.
# (§5) To evaluate a change effect from the baseline (pre-brush) to the different times post-brush, a mean difference between each time-point to the baseline mean score was calculated to obtain delta values.
# [2] = employed in oral care compositions such as mouthwashes or toothpastes; cited from earlier work
# [3] = Breath-freshness self-assessment (three questions) after teeth brushing, home use test; format: in vivo, human
# Procedure: as §1, §2, §3, §4
# The data for this test was collected through an online questionnaire set up via SurveyMonkey Audience. The questionnaires on breath-freshness and self-confidence was set up for participants to respond to at the five time-points: (i) pre-brush baseline (ii) 0 minutes immediately post-bush (iii) 30 minutes post-brush (iv) 60 minutes post-brush. A total of 47 datasets per product was input for analysis and 5 incompletes were removed.
# Breath freshness was self-evaluated with a set of three questions asking (i) whole mouth clean feel; (ii) natural freshness in mouth; and (lii) cooling sensation in the mouth. […] Breath assessment recorded before teeth brushing was categorized as the baseline measure.
# as §5
# [4] = 60 minutes from brushing with a toothpaste containing EC180
smiles,measurement,setting,value
"CC(C)[C@@H]1CC[C@@H](C)C[C@H]1C(=O)Nc1ccc(CC#N)cc1 [EC180, (1R,2S,5R)—N-(4-cyanomethylphenyl)-p-menthane carboxamide]",level of self-confidence vs flavoured tooth paste alone,"[1]; 10 minutes after brushing, in a flavoured tooth-paste, FIG. 2",significantly increased
same,change of level of self-confidence compared to immediately after brushing (0 min),"[1]; 10 minutes after brushing, toothpaste comprising EC180",noticeable increase
same,self-confidence compared to the level attained immediately after brushing,[1]; [4],more than 80%
same,period of time the level of self-confidence remained elevated after teeth brushing,"[1]; in a flavoured tooth-paste, effect still observed 60 min after brushing",up to 30 min
same,cooling effect,[2],strong and long-lasting cooling effect
same,level of breath freshness vs flavoured tooth paste alone,"[3]; 10 minutes after brushing, in a flavoured tooth-paste, FIG. 1",same level of breath freshness
same,breath freshness relative to the initial level,[3]; [4],about 60%
same,change of breath freshness compared to immediately after brushing (0 min),"[3]; up to 10 minutes after brushing, toothpaste comprising EC180",only minimally increases
